Results as given in patent EP0006061A1, “Medicinal compound consisting of a derivative of cyclopentyl aldehyde” (INSTITUT DE RECHERCHES CHIMIQUES ET BIOLOGIQUES APPLIQUEES …, priority 1978, dated 1979).
Values after ≈ are worked out from the molar mass of the structure shown. Where two headings read alike, the source gives them in different places.

Assays:
[1] = tested on: cobayes; experiment: histamine aerosol bronchospasm (time to apnoea); assay type: in vivo; details: aerosol for 10 min before histamine aerosol, controls 108 ± 18
Description: Les essais pharmaceutiques qui ont été mis en oeuvre avec les produits des exemples 1 et 4, ont été résumés ci-après : • 1°/ essais avec l'exemple 1 • a/ activité bactériostatique L' α-(2-formyl-3-méthyl-cyclopentyl)-acétal- déhyde inhibe les bactéries Gram (+) et Gram (-). Les CMI (concentration minimale inhibitrice) sont les suivantes : 0,75 mg/ml sur Staphylococcus aureus Londres, 1,2 mg/ml sur Escherichia coli, et 1,5 mg/ml sur Proteus • b/ activité antispasmodique : Les DE-50 du produit de l'exemple 1 ont été déterminés • (i) in vitro sur iléon isolé de cobaye vis à vis de l'histamine : DE - 50 = 50 γ/ml; • (ii) in vivo sur l'animal vivant selon la méthode de KONZETT & ROESLLER : DE - 50 = 2,6 mg/kg par administration i.v. • c/ activité antianaphylactique : Des cobayes mâles sont sensibilisés par deux injections de 0,5 ml d'une solution d'albumine à 2 g/1, à deux jours d'intervalle. Quatre semaines aprës,le choc anaphylactique mortel est provoqué par injection i.v. de 0,2 ml d'une solution aqueuse d'ovalbumine à 2 g/1. Les produits à tester sont administrés 30 mn avant (administration i.p.) ou en même temps (administration i.v.) que l'injection provoquant ledit choc anaphylactique. Les résultats sont donnés dans le tableau I pour le produit de l'exemple 1 et la Prométhazine en tant que produit de référence : [formula] • 2°/ essais avec le produit de l'exemple 4 (constitué par un mélange de 87 % en poids d'isomère "cis-trans" et 13 % en poids d'isomère "trans-cis). • a/ activité bactériostatigue : Le produit de l'exemple 4 inhibe les bactéries Gram (+) et Gram (-). […]

[2] = tested on: cobayes; experiment: antianaphylactic activity: ovalbumin aerosol in sensitised animals (time to dyspnoea); assay type: in vivo; details: aerosol pretreatment, controls 94 ± 39
Text: Des cobayes (mâles ou femelles) sont sensibilisés à l'ovalbumine quatre semaines avant le début de l'expérience. Chaque animal est exposé à un aérosol d'ovalbumine (obtenu à partir d'un milieu aqueux contenant 50 g/1 d'ovalbumine). Le choc anaphylactique se manifeste par l'apparition d'une dyspnée intense. Les temps d'apparition de la dyspnée sont comparés entre lot témoin et lots préalablement traités avec un aérosol du produit de l'exemple 4 (50 g/1 dans une solution eau-éthanol). Les résultats donnés dans le tableau IV, montrent que le produit de l'exemple 4 […] le temps d'apparition des troubles respiratoires provoqués par l'aérosol d'ovalbumine .

[3] = tested on: iléon isolé de cobaye; experiment: antianaphylactic activity in vitro: albumin-induced contraction of ileum from sensitised animals; assay type: cell-based; details: for amplitude des contractions: 2 min contact, 200 µg albumin, controls 147 ± 32
Description: Des cobayes mâles sont sensibilises par une injection i.p. de 100 mg/kg d'ovalbumine dans un volume égal d'adjuvant de Freund. Quatre semaines après, les animaux sont sacrifiés, on recueille chaque iléon qui est placé à 33°C dans un bain de Thyrode. Une contraction est provoquée par addition d'une dose de 200 µg d'albumine au liquide de survie. L'amplitude des contractions des témoins est comparée à l'amplitude des contractions après mise en contact du produit de l'exemple 4 pendant 2 mn. Les résultats donnés dans le tableau III montrent que le produit de l'exemple 4 réduit l'amplitude des contractions de l'iléon isolé de cobaye , cette réduction étant statistiquement significative.

[4] = tested on: Salmonella typhi murium (souche IP); experiment: bacteriostatic activity (MIC); assay type: cell-based; details: Salmonella enterica, read-out: CMI
Description: (§1) Les essais pharmaceutiques qui ont été mis en oeuvre avec les produits des exemples 1 et 4, ont été résumés ci-après : • 1°/ essais avec l'exemple 1 • a/ activité bactériostatique L' α-(2-formyl-3-méthyl-cyclopentyl)-acétal- déhyde inhibe les bactéries Gram (+) et Gram (-). Les CMI (concentration minimale inhibitrice) sont les suivantes : 0,75 mg/ml sur Staphylococcus aureus Londres, 1,2 mg/ml sur Escherichia coli, et 1,5 mg/ml sur Proteus • b/ activité antispasmodique : Les DE-50 du produit de l'exemple 1 ont été déterminés • (i) in vitro sur iléon isolé de cobaye vis à vis de l'histamine : DE - 50 = 50 γ/ml; • (ii) in vivo sur l'animal vivant selon la méthode de KONZETT & ROESLLER : DE - 50 = 2,6 mg/kg par administration i.v. • c/ activité antianaphylactique : Des cobayes mâles sont sensibilisés par deux injections de 0,5 ml d'une solution d'albumine à 2 g/1, à deux jours d'intervalle. Quatre semaines aprës,le choc anaphylactique mortel est provoqué par injection i.v. de 0,2 ml d'une solution aqueuse d'ovalbumine à 2 g/1. Les produits à tester sont administrés 30 mn avant (administration i.p.) ou en même temps (administration i.v.) que l'injection provoquant ledit choc anaphylactique. Les résultats sont donnés dans le tableau I pour le produit de l'exemple 1 et la Prométhazine en tant que produit de référence : [formula] • 2°/ essais avec le produit de l'exemple 4 (constitué par un mélange de 87 % en poids d'isomère "cis-trans" et 13 % en poids d'isomère "trans-cis). • a/ activité bactériostatigue : Le produit de l'exemple 4 inhibe les bactéries Gram (+) et Gram (-). Ses CMI sont les suivantes : • 1,5 mg/m sur Staphylococcus aureus, Londres • 1 mg/ml sur Escherichia coli (souche 548) • 1,75 mg/ml sur Proteus vulgaris (souche 1557) • 2,5 mg/ml sur Klebsiella pneumoniae (souche 433), • 1 mg/ml sur Salmonella typhi murium (souche IP), • 1,5 mg/ml sur Staphylococcus aureus (souche 634), • 1,25 mg/ml sur Streptococcus (souche 1178) • 1,25 mg/ml sur Bacillus substilis, (les souches 548, 1557, 433, 634, et 1178 étant celles du catalogue de la collection du "Centre International de Distribution de Souches et d'Information sur les Types Microbiens" de . Lausanne, et la souche "IP" provenant de l'Institut Pasteur de Paris. • b/ activité bactéricide Le produit de l'exemple 4 détruit les bactéries Gram (+) et Gram (-). Ses CMB (concentration minimalebactéricide) déterminées sur milieu solide (quand moins de 0,01% de germes survivent) sont : • 1,75 mg/ml sur Staphylococcus aureus Londres • 1,5 mg/ml sur Escherichia coli (souche 548) • 2 mg/ml sur Proteus vulgaris (souche 1557) • 3 mg/ml sur Klebsiella pneumoniae (souche 433), • 1,25 mg/ml sur Salmonella typhi murium (souche I.P.) • 1,75 mg/ml sur Staphylococcus aureus (souche 634) • 2 mg/ml sur Streptococcus (souche 1178) • 2,5 mg/ml sur Bacillus substilis. • c/ activité bronchospatique Des cobayes mâles ou femelles [20 animaux (pesant 300-500 g) par dose et par produit à tester] sont exposés à un aérosol de l'exemple 4 (50 g/l en solution eau-éthanol) ou de Prométhazine (produit de référence) pendant 10 mn.

[5] = tested on: Bacillus substilis; experiment: bacteriostatic activity (MIC); assay type: cell-based; details: read-out: CMI
Description: as §1

[6] = tested on: Streptococcus (souche 1178); experiment: bacteriostatic activity (MIC); assay type: cell-based; details: read-out: CMI
Description: as §1

[7] = tested on: Staphylococcus aureus (souche 634); experiment: bacteriostatic activity (MIC); assay type: cell-based; details: read-out: CMI
Description: as §1

[8] = tested on: Proteus vulgaris (souche 1557); experiment: bacteriostatic activity (MIC); assay type: cell-based; details: read-out: CMI
Description: as §1

[9] = tested on: Klebsiella pneumoniae (souche 433); experiment: bacteriostatic activity (MIC); assay type: cell-based; details: read-out: CMI
Description: as §1

[10] = tested on: Escherichia coli (souche 548); experiment: bacteriostatic activity (MIC); assay type: cell-based; details: read-out: CMI
Description: as §1

[11] = acute toxicity (LD50); design: species or system souris; details: in vivo, mouse
Description: Les DL-50 du poids de l'exemple 4 chez la souris sont les suivantes : • DL-50 i.p. = 18 ± 3 mg/kg • DL-50 i.v. - 20 ± 3 mg/kg • DL-50 p.o. = 282 ± 3 mg/kg • DL-50 s.c. > 1000 mg/kg • DL-50 aérosol = 22 ± 3 mg/kg

[12] = tested on: rat femelle; experiment: anti-inflammatory activity, carrageenin oedema test; assay type: in vivo
Text: L'activité anti-inflammatoire de l'exemple 4 a été étudiée chez le rat femelle (de poids 100 g) selon le test de l'oedème à la carragéenine.Les résultats sont donnés dans le tableau IV où l'Indométacine est utilisée comme produit de référence : […]

[13] = tested on: Bacillus substilis; experiment: bactericidal activity (MBC) on solid medium; assay type: cell-based; details: less than 0,01% of germs survive, read-out: CMB (concentration minimalebactéricide)
Description: as §1

[14] = tested on: Streptococcus (souche 1178); experiment: bactericidal activity (MBC) on solid medium; assay type: cell-based; details: less than 0,01% of germs survive, read-out: CMB (concentration minimalebactéricide)
Description: as §1

[15] = tested on: Staphylococcus aureus (souche 634); experiment: bactericidal activity (MBC) on solid medium; assay type: cell-based; details: less than 0,01% of germs survive, read-out: CMB (concentration minimalebactéricide)
Description: as §1

[16] = tested on: Proteus vulgaris (souche 1557); experiment: bactericidal activity (MBC) on solid medium; assay type: cell-based; details: less than 0,01% of germs survive, read-out: CMB (concentration minimalebactéricide)
Description: as §1

[17] = tested on: Staphylococcus aureus Londres; experiment: bactericidal activity (MBC) on solid medium; assay type: cell-based; details: less than 0,01% of germs survive, read-out: CMB (concentration minimalebactéricide)
Description: as §1

[18] = tested on: Salmonella typhi murium (souche I.P.); experiment: bactericidal activity (MBC) on solid medium; assay type: cell-based; details: Salmonella enterica, less than 0,01% of germs survive, read-out: CMB (concentration minimalebactéricide)
Description: as §1

[19] = tested on: Klebsiella pneumoniae (souche 433); experiment: bactericidal activity (MBC) on solid medium; assay type: cell-based; details: less than 0,01% of germs survive, read-out: CMB (concentration minimalebactéricide)
Description: as §1

[20] = tested on: Escherichia coli (souche 548); experiment: bactericidal activity (MBC) on solid medium; assay type: cell-based; details: less than 0,01% of germs survive, read-out: CMB (concentration minimalebactéricide)
Description: as §1

[21] = tested on: duodénum isolé de rat; experiment: antispasmodic activity on isolated duodenum against acetylcholine; assay type: cell-based; details: against acetylcholine (0,2 µg/ml), read-out: DE-50 (the source's name)
Description: (§2) L'activité antispasmodique du produit de l'exemple 4 a été étudiée sur le duodénum isolé de rat vis à vis de l'acétvlcholine et du chlorure de baryum. Les DE-50 du produit de l'exemple 4 sont : • (i) 13 µg/ml vis à vis de l'acétycholine (0,2 µg/ml), et • (ii) 10 µg/ml vis à vis de BaCl2 (0,3 µg/ml). g/ toxicité

[22] = tested on: duodénum isolé de rat; experiment: antispasmodic activity on isolated duodenum against barium chloride; assay type: cell-based; details: against BaCl2 (0,3 µg/ml), read-out: DE-50 (the source's name)
Description: as §2

SMILES: CC(CN1c2ccccc2Sc2ccccc21)N(C)C (stereo not shown) [Prométhazine, reference compound]
- Apparition de l'apnée (en secondes) ([1]; 0,1 mg/kg): >600 secondes

SMILES: C=C(C=O)C1CCC(C)C1C=O (stereo not drawn) [Ex. 4, α-(2-formyl-3-méthyl-cyclopentyl)-acrylaldéhyde]
- Dyspnée temps d'apparition (secondes) ([2]; 1 mg/kg): 120 ± 52 secondes
- Dyspnée temps d'apparition (secondes) ([2]; 10 mg/kg): 130 ± 54 secondes
- amplitude des contractions ([3]; 5 µg/ml): 91 ± 37
- amplitude des contractions ([3]; 10 µg/ml): 52 ± 16
- inhibition at 5 µg/mL ([3]; Cavia porcellus, 2 min, 5 µg/ml, read-out: variation de l'amplitude par rapport aux animaux témoins): 38%
- inhibition at 10 µg/mL ([3]; Cavia porcellus, 2 min, 10 µg/ml, read-out: variation de l'amplitude par rapport aux animaux témoins): 65%
- MIC [4]: 1000 µg/mL (≈ 6.02 mM)
- MIC [5]: 1250 µg/mL (≈ 7.52 mM)
- MIC [6]: 1250 µg/mL (≈ 7.52 mM)
- MIC [7]: 1500 µg/mL (≈ 9.02 mM)
- MIC [8]: 1750 µg/mL (≈ 10.5 mM)
- MIC [9]: 2500 µg/mL (≈ 15 mM)
- MIC [10]: 1000 µg/mL (≈ 6.02 mM)
- LD50 ([11]; inhaled or intranasal, aerosol, read-out: DL-50 aérosol): 22 ± 3 mg/kg
- LD50 ([11]; ip, i.p., read-out: DL-50 i.p.): 18 ± 3 mg/kg
- LD50 ([11]; iv, i.v., read-out: DL-50 i.v.): 20 ± 3 mg/kg
- LD50 ([11]; po, p.o., read-out: DL-50 p.o.): 282 ± 3 mg/kg
- LD50 ([11]; sc, s.c., read-out: DL-50 s.c.): > 1000 mg/kg
- Apparition de l'apnée (en secondes) ([1]; 1 mg/kg): 130 ± 23 secondes
- Apparition de l'apnée (en secondes) ([1]; 10 mg/kg): 169 ± 32 secondes
- inhibition par rapport aux témoins ([12]; dose 10 µg per rat): 26%
- inhibition par rapport aux témoins ([12]; dose 50 µg per rat): 25%
- inhibition par rapport aux témoins ([12]; dose 200 µg per rat): 41%
- MBC [13]: 2500 µg/mL (≈ 15 mM)
- MBC [14]: 2000 µg/mL (≈ 12 mM)
- MBC [15]: 1750 µg/mL (≈ 10.5 mM)
- MBC [16]: 2000 µg/mL (≈ 12 mM)
- MBC [17]: 1750 µg/mL (≈ 10.5 mM)
- MBC [18]: 1250 µg/mL (≈ 7.52 mM)
- MBC [19]: 3000 µg/mL (≈ 18 mM)
- MBC [20]: 1500 µg/mL (≈ 9.02 mM)
- EC50 [21]: 13 µg/mL (≈ 0.0782 mM)
- EC50 [22]: 10 µg/mL (≈ 0.0602 mM)
